Legend:
[1] = molecular target: T1, Prostaglandin E synthase (Mus musculus) (UniProt Q9JM51); experiment: Inhibition of mPGES-1 in mouse RAW264.7 cells assessed as reduction in LPS-induced PGE2 production at 1 uM after 24 hrs relative to control; format: cell-based
T1 sequence (whole entry): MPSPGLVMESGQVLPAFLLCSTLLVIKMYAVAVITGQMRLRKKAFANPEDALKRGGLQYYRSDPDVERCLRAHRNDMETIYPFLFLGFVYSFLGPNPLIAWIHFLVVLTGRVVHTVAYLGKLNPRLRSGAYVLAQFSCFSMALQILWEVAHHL

Prostaglandin E synthase = molecular target: T2, Prostaglandin E synthase (Mus musculus, UniProt Q9JM51); experiment: Inhibition of mPGES-1 in mouse RAW264.7 cells assessed as reduction in LPS-induced PGE2 production after 24 hrs; format: cell-based
T2 sequence (Q9JM51 whole entry): T1 sequence (whole entry)

Mus musculus = species on record: Mus musculus; experiment: Cytotoxicity against LPS-stimulated mouse RAW264.7 cells assessed as concentration required for reduction in cell viability after 24 hrs by MTT assay; format: toxicity, cell-based; conditions: raw264.7, 24 h
[2] = molecular target: T1, Prostaglandin E synthase (Mus musculus); experiment: Inhibition of mPGES-1 in mouse RAW264.7 cells assessed as reduction in LPS-induced PGE2 production at 10 uM after 24 hrs relative to control; format: cell-based
[3] = molecular target: T3, Prostaglandin G/H synthase 2 (Homo sapiens, UniProt P35354); experiment: Inhibition of recombinant human COX2 by enzyme immunoassay
T3 sequence (P35354 whole entry): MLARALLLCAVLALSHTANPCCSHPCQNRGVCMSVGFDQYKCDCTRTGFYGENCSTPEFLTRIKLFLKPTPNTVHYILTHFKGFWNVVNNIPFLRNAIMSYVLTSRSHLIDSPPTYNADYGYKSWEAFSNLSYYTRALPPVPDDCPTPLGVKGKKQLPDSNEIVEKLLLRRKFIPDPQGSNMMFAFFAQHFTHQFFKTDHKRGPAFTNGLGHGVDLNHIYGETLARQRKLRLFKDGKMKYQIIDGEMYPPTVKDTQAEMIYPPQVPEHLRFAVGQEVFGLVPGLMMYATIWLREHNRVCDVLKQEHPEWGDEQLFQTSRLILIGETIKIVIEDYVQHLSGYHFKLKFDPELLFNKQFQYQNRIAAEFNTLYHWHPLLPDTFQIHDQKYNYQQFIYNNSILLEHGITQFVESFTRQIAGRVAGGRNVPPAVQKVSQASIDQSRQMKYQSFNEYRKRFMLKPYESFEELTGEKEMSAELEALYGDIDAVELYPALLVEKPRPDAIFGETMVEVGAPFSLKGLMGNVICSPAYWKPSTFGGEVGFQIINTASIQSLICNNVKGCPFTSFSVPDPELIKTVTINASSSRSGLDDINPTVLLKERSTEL

[4] = molecular target: T4, Prostaglandin G/H synthase 1 (Ovis aries, UniProt P05979); experiment: Inhibition of ovine COX1 by enzyme immunoassay
T4 sequence (P05979 whole entry): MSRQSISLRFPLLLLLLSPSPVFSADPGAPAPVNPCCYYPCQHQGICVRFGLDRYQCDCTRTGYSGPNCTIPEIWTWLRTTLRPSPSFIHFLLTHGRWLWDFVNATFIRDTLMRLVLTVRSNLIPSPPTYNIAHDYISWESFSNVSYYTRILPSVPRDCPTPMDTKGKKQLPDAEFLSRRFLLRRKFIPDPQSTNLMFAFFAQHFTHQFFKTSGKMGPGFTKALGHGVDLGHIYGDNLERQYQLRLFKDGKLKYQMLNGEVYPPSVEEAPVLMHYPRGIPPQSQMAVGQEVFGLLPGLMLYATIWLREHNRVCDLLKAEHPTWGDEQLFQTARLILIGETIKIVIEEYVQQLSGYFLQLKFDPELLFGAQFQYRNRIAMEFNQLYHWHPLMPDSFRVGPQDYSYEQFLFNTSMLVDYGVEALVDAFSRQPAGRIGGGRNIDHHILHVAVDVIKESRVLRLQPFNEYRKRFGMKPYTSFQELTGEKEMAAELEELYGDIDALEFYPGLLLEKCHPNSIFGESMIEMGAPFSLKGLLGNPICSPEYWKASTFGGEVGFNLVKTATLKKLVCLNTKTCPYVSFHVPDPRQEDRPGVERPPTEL

[5] = Metabolic stability in human liver microsomes assessed as compound remaining after 30 mins; format: ADME; conditions: read-out: Stability
[6] = molecular target: T1, Prostaglandin E synthase (Mus musculus); experiment: Inhibition of mPGES-1 in mouse RAW264.7 cells assessed as reduction in LPS-induced PGE2 production at 3 uM after 24 hrs relative to control; format: cell-based
[7] = Metabolic stability in mouse liver microsomes assessed as compound remaining after 30 mins; format: ADME; conditions: read-out: Stability
[8] = Metabolic stability in dog liver microsomes assessed as compound remaining after 30 mins; format: ADME, Canis lupus familiaris; conditions: read-out: Stability
[9] = Metabolic stability in rat liver microsomes assessed as compound remaining after 30 mins; format: ADME; conditions: read-out: Stability

| SMILES | inhibition [1] | IC50 (Prostaglandin E synthase) | Activity (Mus musculus) | inhibition [2] | IC50 [3] | IC50 [4] | remaining at 0.5 h [5] | inhibition [6] | remaining at 0.5 h [7] | remaining at 0.5 h [8] | remaining at 0.5 h [9] |
| --- | --- | --- | --- | --- | --- | --- | --- | --- | --- | --- | --- |
| COc1ccc(S(=O)(=O)NN(C(=O)Oc2ccccc2OC)c2ccccc2)cc1 | 0% | > 10 µM | > 10 µM | 18% |  |  |  |  |  |  |  |
| COc1ccc(S(=O)(=O)N(Nc2ccccc2)C(=O)Oc2ccccc2OC)cc1 | 63% | 0.69 µM | > 10 µM |  | > 1 µM | > 1 µM |  |  |  |  |  |
| COc1ccc(CCN(C)CCCC(C#N)(c2ccc(OC)c(OC)c2)C(C)C)cc1OC (stereo unspecified) |  |  |  |  |  |  | < 5% |  |  |  |  |
| O=C(Oc1ccc2c(c1)CCC2)N(NS(=O)(=O)c1ccc(Cl)cc1)c1ccccc1 | 73% | 0.79 µM | > 10 µM |  | > 1 µM | > 1 µM |  |  |  |  |  |
| CS(=O)(=O)Nc1ccc([N+](=O)[O-])cc1OC1CCCCC1 [NS-398] |  | 0.007 µM |  |  |  |  |  | 86% |  |  |  |
| COc1ccc(S(=O)(=O)N(Nc2ccccc2)C(=O)Oc2ccc(OCc3ccccc3)cc2)cc1 | 84% | 0.06 µM | > 10 µM |  | > 1 µM | > 1 µM | 66.6% |  | 42.2% | 48.5% | 16.3% |
| O=C(Oc1ccc2c(c1)CCC2)N(Nc1ccccc1)S(=O)(=O)c1ccc(Cl)cc1 | 75% | 0.55 µM | > 10 µM |  | > 1 µM | > 1 µM |  |  |  |  |  |
